Blank lines part the entries; values can stand above or below the compound they belong to.
Assays:
U-937 [1] = test: Induction of apoptosis in human U-937 cells assessed as viable cells at 1.2 uM incubated for 48 hrs by annexin V-FITC/PI satining based flow cytometry (reference value: 93.7 %); format: functional; settings: read-out: Activity
U-937 [2] = test: Induction of apoptosis in human U-937 cells assessed as necrotic cells at 1.2 uM incubated for 48 hrs by annexin V-FITC/PI satining based flow cytometry (reference value: 0.102 %); format: functional
U-937 [3] = test: Induction of apoptosis in human U-937 cells assessed as late apoptotic cells at 0.6 uM incubated for 48 hrs by annexin V-FITC/PI satining based flow cytometry (reference value: 4.23 %); format: functional
U-937 [4] = test: Induction of apoptosis in human U-937 cells assessed as necrotic cells at 5 uM incubated for 48 hrs by annexin V-FITC/PI satining based flow cytometry (reference value: 0.102 %); format: functional
U-937 [5] = test: Induction of apoptosis in human U-937 cells assessed as early apoptotic cells at 2.5 uM incubated for 48 hrs by annexin V-FITC/PI satining based flow cytometry (reference value: 1.93 %); format: functional
HL-60 [6] = test: Induction of apoptosis in human HL-60 cells assessed as necrotic cells at 5 uM incubated for 48 hrs by annexin V-FITC/PI satining based flow cytometry (reference value: 0.04 %); format: functional
HL-60 [7] = test: Induction of differentiation in human HL-60 cells assessed as increase in CD11b positive cells at 1.2 uM incubated for 24 hrs by FITC staining based flow cytometry (reference value: 1.12 %); format: functional
HL-60 [8] = test: Induction of apoptosis in human HL-60 cells assessed as early apoptotic cells at 5 uM incubated for 48 hrs by annexin V-FITC/PI satining based flow cytometry (reference value: 2.4 %); format: functional
U-937 [9] = test: Induction of apoptosis in human U-937 cells assessed as necrotic cells at 0.6 uM incubated for 48 hrs by annexin V-FITC/PI satining based flow cytometry (reference value: 0.102 %); format: functional
U-937 [10] = test: Induction of apoptosis in human U-937 cells assessed as early apoptotic cells at 0.6 uM incubated for 48 hrs by annexin V-FITC/PI satining based flow cytometry (reference value: 1.93 %); format: functional
HL-60 [11] = test: Induction of apoptosis in human HL-60 cells assessed as early apoptotic cells at 1.2 uM incubated for 48 hrs by annexin V-FITC/PI satining based flow cytometry (reference value: 2.4 %); format: functional
HL-60 [12] = test: Induction of apoptosis in human HL-60 cells assessed as viable cells at 0.6 uM incubated for 48 hrs by annexin V-FITC/PI satining based flow cytometry (reference value: 94.7 %); format: functional; settings: read-out: Activity
[13] = target: Cyclin-dependent kinase 5/CDK5 activator 1 (Homo sapiens) (UniProt Q00535+Q15078); test: Inhibition of CDK5/p35NCK (unknown origin) at 100 nM preincubated for 20 mins followed by [gamma-33P]ATP addition measured after 120 mins in presence of ATP by Hot-SpotSM kinase assay relative to control; format: protein-complex assay; settings: time 140.0 min
Chain of Cyclin-dependent kinase 5/CDK5 activator 1 (Homo sapiens) (Q00535 whole entry): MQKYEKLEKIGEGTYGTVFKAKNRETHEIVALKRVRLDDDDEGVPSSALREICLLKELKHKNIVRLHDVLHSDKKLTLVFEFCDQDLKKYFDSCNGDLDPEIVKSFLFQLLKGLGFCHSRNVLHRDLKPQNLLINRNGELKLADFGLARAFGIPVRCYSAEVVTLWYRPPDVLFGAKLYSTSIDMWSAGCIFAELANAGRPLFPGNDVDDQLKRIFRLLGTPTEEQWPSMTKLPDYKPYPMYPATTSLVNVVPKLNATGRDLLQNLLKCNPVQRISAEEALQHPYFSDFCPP
Chain of Cyclin-dependent kinase 5/CDK5 activator 1 (Homo sapiens) (Q15078 99-307 partner limits assumed): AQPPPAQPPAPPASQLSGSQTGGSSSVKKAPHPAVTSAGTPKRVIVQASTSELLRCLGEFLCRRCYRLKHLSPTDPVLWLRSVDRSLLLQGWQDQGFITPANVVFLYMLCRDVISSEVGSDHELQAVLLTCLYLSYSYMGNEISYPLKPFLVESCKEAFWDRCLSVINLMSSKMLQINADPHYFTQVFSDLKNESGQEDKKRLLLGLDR

HL-60 [14] = test: Induction of apoptosis in human HL-60 cells assessed as late apoptotic cells at 1 uM incubated for 48 hrs by annexin V-FITC/PI satining based flow cytometry (reference value: 1.33 %); format: functional
Histone deacetylase 2 [15] = target: T1, Histone deacetylase 2 (Homo sapiens, UniProt Q92769); test: Inhibition of recombinant human HDAC2 using HDAC substrate incubated for 30 mins by fluorescence based assay
T1 sequence (Q92769 whole entry): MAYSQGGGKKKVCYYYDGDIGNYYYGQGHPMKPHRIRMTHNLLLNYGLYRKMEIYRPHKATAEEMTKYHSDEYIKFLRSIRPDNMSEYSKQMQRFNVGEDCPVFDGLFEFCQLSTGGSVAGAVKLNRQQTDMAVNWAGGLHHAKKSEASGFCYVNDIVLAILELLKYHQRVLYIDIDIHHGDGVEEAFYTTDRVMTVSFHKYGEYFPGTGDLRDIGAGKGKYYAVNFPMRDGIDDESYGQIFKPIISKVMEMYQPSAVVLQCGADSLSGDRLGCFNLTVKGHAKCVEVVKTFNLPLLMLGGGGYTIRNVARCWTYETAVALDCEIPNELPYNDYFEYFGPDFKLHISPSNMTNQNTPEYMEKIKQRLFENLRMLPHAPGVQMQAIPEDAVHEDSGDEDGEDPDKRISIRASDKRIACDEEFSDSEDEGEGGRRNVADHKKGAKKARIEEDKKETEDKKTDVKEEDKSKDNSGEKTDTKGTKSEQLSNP

[16] = target: CDK4/Cyclin D3 (Homo sapiens) (UniProt P11802+P30281); test: Inhibition of CDK4/cyclinD3 (unknown origin) at 100 nM preincubated for 20 mins followed by [gamma-33P]ATP addition measured after 120 mins in presence of ATP by Hot-SpotSM kinase assay relative to control; format: protein-complex assay; settings: time 140.0 min
[17] = Cmax in Sprague-Dawley rat at 25 mg/kg, po measured upto 8 hrs by LC/MS-MS analysis; format: ADME, organism-based; design: time < 8 hrs, dose 25 mg/kg, route po; settings: in vivo
[18] = target: Cyclin-dependent kinase 9 (Homo sapiens, UniProt P50750); test: Inhibition of CDK9 (unknown origin) preincubated for 20 mins followed by [gamma-33P]ATP addition measured after 120 mins in presence of ATP by Hot-SpotSM kinase assay
Chain of Cyclin-dependent kinase 9 (P50750 whole entry): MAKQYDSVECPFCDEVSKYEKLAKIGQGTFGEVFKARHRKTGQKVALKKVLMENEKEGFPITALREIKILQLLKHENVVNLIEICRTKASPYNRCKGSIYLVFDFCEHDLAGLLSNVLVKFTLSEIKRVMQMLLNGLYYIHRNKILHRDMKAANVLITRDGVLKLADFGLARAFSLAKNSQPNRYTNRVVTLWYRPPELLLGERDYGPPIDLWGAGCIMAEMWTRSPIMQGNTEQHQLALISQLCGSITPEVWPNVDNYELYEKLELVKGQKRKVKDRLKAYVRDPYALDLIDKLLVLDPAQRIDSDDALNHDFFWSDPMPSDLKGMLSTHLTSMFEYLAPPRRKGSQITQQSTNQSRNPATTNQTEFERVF

HL-60 [19] = test: Induction of apoptosis in human HL-60 cells assessed as early apoptotic cells at 1 uM incubated for 48 hrs by annexin V-FITC/PI satining based flow cytometry (reference value: 1.24 %); format: functional
U-937 [20] = test: Induction of apoptosis in human U-937 cells assessed as viable cells at 0.2 uM incubated for 48 hrs by annexin V-FITC/PI satining based flow cytometry (reference value: 90.0 %); format: functional; settings: read-out: Activity
[21] = AUC in Sprague-Dawley rat at 25 mg/kg, po measured upto 8 hrs by LC/MS-MS analysis; format: ADME, organism-based; design: time < 8 hrs, dose 25 mg/kg, route po; settings: in vivo
HL-60 [22] = test: Induction of differentiation in human HL-60 cells assessed as increase in CD11b positive cells at 0.5 uM incubated for 24 hrs by FITC staining based flow cytometry (reference value: 1.45 %); format: functional
[23] = Cytotoxicity against human Kasumi 1 cells assessed as CD34positive CD38negative leukemic stem cell-like cells sub-population at 2 uM incubated for 24 hrs by APC/FITC satining based flow cytometry (reference value: 96.8 %); format: functional
Histone deacetylase 3 = Histone deacetylase 3 (Homo sapiens, UniProt O15379); test: Inhibition of HDAC3 in human nuclear extract using Ac-Arg-Gly-Lys(Ac)-AMC as substrate at 1 uM incubated overnight by fluorescence based assay relative to control; format: subcellular; settings: HeLa, Nucleus
Chain of Histone deacetylase 3 (O15379 whole entry): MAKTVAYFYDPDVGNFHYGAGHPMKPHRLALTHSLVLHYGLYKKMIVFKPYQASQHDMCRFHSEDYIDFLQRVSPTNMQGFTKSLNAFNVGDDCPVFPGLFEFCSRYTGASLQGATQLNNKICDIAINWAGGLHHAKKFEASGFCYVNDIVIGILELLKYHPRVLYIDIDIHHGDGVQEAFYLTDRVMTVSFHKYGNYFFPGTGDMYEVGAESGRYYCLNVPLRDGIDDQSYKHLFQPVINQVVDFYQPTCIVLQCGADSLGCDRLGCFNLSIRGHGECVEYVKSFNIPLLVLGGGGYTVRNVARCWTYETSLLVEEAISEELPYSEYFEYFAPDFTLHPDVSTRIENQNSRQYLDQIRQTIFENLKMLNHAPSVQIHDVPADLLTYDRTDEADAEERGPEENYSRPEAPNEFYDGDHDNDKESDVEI

HL-60 [24] = test: Induction of apoptosis in human HL-60 cells assessed as necrotic cells at 1 uM incubated for 48 hrs by annexin V-FITC/PI satining based flow cytometry (reference value: 0.00 %); format: functional
HL-60 [25] = test: Induction of apoptosis in human HL-60 cells assessed as viable cells at 1 uM incubated for 48 hrs by annexin V-FITC/PI satining based flow cytometry (reference value: 97.4 %); format: functional; settings: read-out: Activity
[26] = target: Cyclin-C/Cyclin-dependent kinase 19 (Homo sapiens) (UniProt Q9BWU1+P24863); test: Inhibition of CDK19/cyclinC (unknown origin) at 100 nM preincubated for 20 mins followed by [gamma-33P]ATP addition measured after 120 mins in presence of ATP by Hot-SpotSM kinase assay relative to control; format: protein-complex assay; settings: time 140.0 min
U-937 [27] = test: Induction of differentiation in human U-937 cells assessed as increase in CD11b positive cells at 0.5 uM incubated for 48 hrs by FITC staining based flow cytometry (reference value: 2.72 %); format: functional
Histone deacetylase 2 [28] = target: T1, Histone deacetylase 2; test: Inhibition of HDAC2 in human nuclear extract using Ac-Arg-Gly-Lys(Ac)-AMC as substrate at 1 uM incubated overnight by fluorescence based assay relative to control; format: subcellular; settings: HeLa, Nucleus
U-937 [29] = test: Induction of apoptosis in human U-937 cells assessed as necrotic cells at 0.5 uM incubated for 48 hrs by annexin V-FITC/PI satining based flow cytometry (reference value: 1.96 %); format: functional
HL-60 [30] = test: Induction of apoptosis in human HL-60 cells assessed as viable cells at 2 uM incubated for 48 hrs by annexin V-FITC/PI satining based flow cytometry (reference value: 97.4 %); format: functional; settings: read-out: Activity

Compound: Nc1cc(F)ccc1NC(=O)c1ccc(CNC(=O)/C=C/c2cccnc2)cc1 [TUCIDINOSTAT]
- viability at 1.2 µM (U-937 [1]): 90.3%
- Activity (U-937 [2]): 0.142%
- Activity (U-937 [3]): 4.81%
- Activity (U-937 [4]): 0.117%
- Activity (U-937 [5]): 2.67%
- Activity (HL-60 [6]): 0.353%
- Activity (HL-60 [7]): 51%
- Activity (HL-60 [8]): 8.11%
- Activity (U-937 [9]): 0.072%
- Activity (U-937 [10]): 1.65%
- Activity (HL-60 [11]): 3.72%
- viability at 0.6 µM (HL-60 [12]): 95.1%

- inhibition [13]: 90.7%
- IC50 (Histone deacetylase 2 [15]): 98.8 nM
- inhibition [16]: 72.8%
- Cmax [17]: 1430 ng/mL
- IC50 [18]: < 100 nM
- AUC [21]: 2368 ng·h/mL
- inhibition (Histone deacetylase 3): 100%
- inhibition [26]: 23.1%
- inhibition (Histone deacetylase 2 [28]): 100%
Compound: Nc1ccccc1NC(=O)c1ccc(NC(=O)c2n[nH]cc2NC(=O)c2c(Cl)cccc2Cl)cc1
- Activity (HL-60 [14]): 39%
- Activity (HL-60 [19]): 17%
- viability at 0.2 µM (U-937 [20]): 87.4%
- Activity (HL-60 [22]): 6.09%
- Activity [23]: 28.1%
- Activity (HL-60 [24]): 0.445%
- viability at 1 µM (HL-60 [25]): 43.5%
- Activity (U-937 [27]): 3.96%
- Activity (U-937 [29]): 4.15%
- viability at 2 µM (HL-60 [30]): 5.25%
